Patent US7173015B2, “Inhibition of Syk kinase expression” (The Trustees of the University of Pennsylvania, priority 2003, dated 2007)
Entries after “also recorded” stand apart in the source; their conditions may differ.

What was measured:
Syk mRNA = experiment: RT-PCR of Syk mRNA in HS-24 cells after siRNA treatment; type: cell-based; details: 48 h treatment
Protocol: (§1) FIGS. 5A and 5B. (FIG. 5A) HS-24 cells, following siRNA treatment, were lysed and equal amounts of total protein in HS-24 cell lysates were resolved by 10% SDS gel electrophoresis, and analyzed by Western blot using monoclonal antibody to Syk or actin. Lane 1—no treatment, lane 2—siRNA-1 (control) 24 h treatment, lane 3—siRNA-1 48 h treatment, lane 4—siRNA-2 24 h treatment, lane 5—siRNA-2 48 h treatment. (FIG. 5B) RNA was isolated and RT-PCR was performed for Syk and β-actin. Lane 1—no treatment, lane 2—SiRNA-1 (control) 48 h treatment, lane 3—siRNA-2 48 h treatment.
(§2) More specifically, HS-24 cells were transiently transfected with siRNA-2 or siRNA-1 (control). Cell surface expression of ICAM-1, as well as release of IL-6, were then examined.

Syk = experiment: Western blot of Syk protein expression in HS-24 cells after siRNA treatment; type: cell-based; details: 48 hr treatment
Protocol: as §1
HS-24 cells (2×10^5) were pre-treated with 3 μl of siRNA-1 (control)
(§3) or Syk antisense, with Lipofectamine 2000 in a 12-well plate for 24 or 48 hr, and stimulated by 10 ng/ml of TNF overnight. Read-outs: IL-6 in culture supernatant (ELISA) and cell surface expression of ICAM-1 (Flow cytometry). As shown by Western blot analysis ([…]), siRNA-2 caused a decrease in Syk protein expression following 48 hr of treatment.
as §2

Syk kinase = experiment: Western blot densitometry of Syk kinase protein in RBL-2H3 cells transfected with siRNA; type: cell-based, rat; details: for Syk (densitometry quantification of Syk kinase expression) / Syk Corr (Syk densitometry units corrected for % actin expression in each lane): 48 hours after transfection; for Syk (densitometry quantification of Syk kinase expression): Western blot; for Syk Corr (Syk densitometry units corrected for % actin expression in each lane): normalized to actin; for % Syk Inhibition: compared to transfection control
Protocol: Rat basophilic cells (RBL-2H3) were grown in EMEM supplemented with 17% FBS, 100 U penicillin, 100 μg/ml streptomycin, and 4 mM glutamine at 37° C. in 5% CO2.
SIRNA was introduced into RBL-2H3 cells and into monocytes by transfection. For the transfections, 5×10^4 RBL-2H3 cells or 1×10^5 monocytes were seeded into each well of a 24-well plate. Twenty-four hours later, the complete medium was replaced with 400 μl fresh medium lacking serum and antibiotic and siRNA/Lipofectamine 2000 complex was added to each well. For the RBL cells, the siRNA/Lipofectamine 2000 complex was formed by adding 3 μl of siRNA duplex (20 μM) and 3 μl of Lipofectamine 2000 to 100 μl Opti-mem without serum or antibiotic according to the manufacturer's protocol. For monocytes, the siRNA/Lipofectamine 2000 complex was formed by adding 3 μl of siRNA duplex (20 μM) and 1 μl of Lipofectamine 2000 to 100 μl Opti-mem without serum or antibiotic. Cells were incubated at 37° C. for 48 hours before examination of kinase protein expression by Western blotting
Lysates were prepared by boiling cells in Laemmli sample buffer (2% SDS, 10% glycerol, 100 mM DTT, and 60 mM Tris (pH 6.8) for 5 minutes. Proteins in lysates were separated by SDS-PAGE (10% polyacrylamide) and transferred to a nitrocellulose membrane in […] (25 mM Tris, 190 mM glycine, and 20% methanol). The nitrocellulose membrane was incubated overnight at 4° C. with 1 μg/ml rabbit anti-murine Syk kinsae polyclonal Ab before incubation with goat anti-rabbit HRP (1.5 h at room temperature). Protein bands on the membrane were visualized with chemiluminescence reagent according to the manufacturer's protocol. After detection of Syk kinase protein, the anti-Syk kinase Ab was removed by incubating the membrane in a stripping buffer containing 100 mM 2-ME, 2% SDS, and 62.5 mM Tris-HCL (pH 6.7) for 30 minutes at 50° C. with occasional agitation. The membrane was then reprobed with anti-actin Ab and bands on the membrane were visualized with chemiluminescence reagent. Protein levels of Syk kinase were quantified by densitometry (Personal Densitometer, Molecular Dynamics).

HS-24 cells = experiment: Viability of HS-24 cells by trypan blue dye exclusion; type: cell-based; details: no significant effect on viability
[1] = test system: ICAM-1 (CD54) expression in HS-24 cells; experiment: Cell surface expression of ICAM-1 in HS-24 cells (flow cytometry); type: cell-based; details: for TNF-induced ICAM-1 expression: siRNA 48 h, TNF 10 ng/ml overnight
Protocol: (§4) FIGS. 6A and 6B. HS-24 cells plated on either polylysine coated plates (non stimulated, resting) or fibronectin coated plates (stimulated) were treated with siRNA-2, or siRNA-1 (control), or piceatannol. Cells were treated with 10 ng/ml of TNF during overnight culture. (FIG. 6A) Following siRNA (48 h) or piceatannol (16 h) treatment, cells were removed, immunostained with anti-CD54 (ICAM-1) and analysed by flow cytometry. (FIG. 6B) Cell culture supernatants were analysed for IL-6 release using an IL-6 ELISA kit. *P<0.05, **P<0.005 as compared to untreated cells (e.g., untreated with siRNA) stimulated with TNF. Results are representative of three to five independent experiments.
as §3

[2] = test system: IL-6 release by HS-24 cells; experiment: IL-6 release of HS-24 cells into culture supernatant (ELISA); type: cell-based
Protocol: as §4, §3

Row | Molecule | Syk mRNA expression (Syk mRNA) | Syk protein expression (Syk) | Syk (densitometry quantification of Syk kinase expression) (Syk kinase) [densitometry units] | Syk Corr (Syk densitometry units corrected for % actin expression in each lane) (Syk kinase) [densitometry units] | % Syk Inhibition (Syk kinase) [%] | viability (trypan blue dye exclusion) (HS-24 cells) [%] | TNF-induced ICAM-1 expression (summary of FIG. 6A) ([1]; HS-24 cells) | constitutive ICAM-1 expression ([1]; HS-24 cells without TNF stimulation) | TNF-induced ICAM-1 expression ([1]; fibronectin-plated HS-24 cells) | TNF-induced ICAM-1 expression ([1]; poly-L-lysine-plated HS-24 cells) | IL-6 release (summary of FIG. 6B) ([2]; HS-24 cells, TNF-induced) | down-regulation of IL-6 release ([2]; TNF-stimulated HS-24 cells, poly-L-lysine and fibronectin culture, significant in fibronectin-adherent culture (P<0.05))
1 | siRNA-1: Syk kinase siRNA duplex; sense 5′ gaagcccuucaaccggccc UU 3′ (SEQ ID NO: 23), antisense 3′-UU cuucgggaaguuggccggg 5′ (SEQ ID NO: 24) (sense GAAGCCCUUCAACCGGCCCUU; antisense GGGCCGGUUGAAGGGCUUCTT; chemistry not given here) | not | not | 953 | 1114 | 45 | – | – | – | – | – | – | –
2 | Oc1cc(O)cc(/C=C/c2ccc(O)c(O)c2)c1 [piceatannol] | – | – | – | – | – | > 96 | – | – | – | – | – | –
3 | siRNA-2: Syk kinase siRNA duplex; sense 5′-ccucaucagggaauaucug UU 3′ (SEQ ID NO: 25), antisense 3′-UU ggaguagucccuuauagac 5′ (SEQ ID NO: 26) (sense CCUCAUCAGGGAAUAUCUGUU; antisense CAGAUAUUCCCUGAUGAGGTT; chemistry not fully specified) | significantly suppressed | decrease; also recorded: significantly suppressed | 627 | 997 | 51 | – | down-regulates | not affected | down-regulated | no significant effect | down-regulates | 55–58%
